This note sets out measurements from patent publication EP4512806A1, “MOLECULAR GLUE DEGRADERS AND USES THEREOF” (Mablink Bioscience, priority 2023, dated 2025).

SMILES strings stand for the structures. Peptide text beside a SMILES is read from it. * marks the point of attachment. Cbz = O=C(OCc1ccccc1)*

The target in one data set is T1, BCRP (Homo sapiens, UniProt Q9UNQ0).
T1 construct: host or cells: MDCK-BCRP
T1 sequence (Q9UNQ0 1-655): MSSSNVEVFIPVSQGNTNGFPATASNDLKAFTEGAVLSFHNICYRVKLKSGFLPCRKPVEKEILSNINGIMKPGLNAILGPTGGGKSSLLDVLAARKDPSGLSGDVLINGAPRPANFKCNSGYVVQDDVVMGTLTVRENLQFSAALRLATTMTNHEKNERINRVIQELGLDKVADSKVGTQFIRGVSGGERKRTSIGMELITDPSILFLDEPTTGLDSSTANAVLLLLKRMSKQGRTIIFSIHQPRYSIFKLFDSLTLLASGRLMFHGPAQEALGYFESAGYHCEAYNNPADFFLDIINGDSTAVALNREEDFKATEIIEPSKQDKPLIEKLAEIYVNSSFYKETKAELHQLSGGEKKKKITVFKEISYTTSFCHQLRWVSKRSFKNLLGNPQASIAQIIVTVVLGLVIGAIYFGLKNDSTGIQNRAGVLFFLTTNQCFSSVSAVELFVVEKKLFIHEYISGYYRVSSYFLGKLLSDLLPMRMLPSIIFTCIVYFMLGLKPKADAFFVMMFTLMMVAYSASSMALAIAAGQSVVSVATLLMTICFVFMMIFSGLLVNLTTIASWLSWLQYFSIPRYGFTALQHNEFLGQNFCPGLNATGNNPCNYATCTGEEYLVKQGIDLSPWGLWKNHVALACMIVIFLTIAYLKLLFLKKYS
The data set is described as follows: BCRP efflux substrate assay (MDCK-BCRP). It counts as in vitro ADME. The following applies: 5µM, 60 min, in words. Here is the method:
(§1) MDR1 and BCRP efflux substrate assays were conducted in MDCK-MDR1 and MDCK-BCRP in vitro models (Preadyport™, Solvo Biotech) at Symeres (Nederland). Compound of the invention (donor well concentration of 5µM) were incubated in cell monolayer 24-transwell Preadyport system, using Preadyport recommended pH 7.4 assay buffer (donor and receiver wells). After 60 min of incubation (no shaking), samples are collected and suspended into triple volume of 66% cold acetonitrile. Samples are stored at -20°C until thawed, centrifuged and analyzed by LC-MS. Quinidine was used a positive control for the MDR1 assay, and prazosin was used as a positive control for the BCRP assay. Exatecan was used as a control, known not to be an MDR1 substrate. Residual DMSO content from compounds stock solutions was below 1% (v/v). The assay was performed in duplicate. The quantification of test compounds in donor or receptor compartment is conducted using relative LC/MS peak areas (samples of initial incubation solutions are used as a single point calibrator), without any spiked standard samples. The data is used for estimating apparent permeability (Papp) and calculation of efflux ratio.
BCRP, like MDR1, is a protein of the tumor cell membrane that pumps the anticancer drugs out of cancer cells, thereby rendering the cell drug-resistant. This multidrug-resistant protein is particularly expressed in breast and lung cancers. The efflux ratio B/A reflects the overall ability of a compounds to enter BCRP-expressing tumor cells (equilibrium between ability to passively enter the cell A→B and susceptibility to be pumped out of a tumor B→A).

For the next data set, the target named is T2, MDR1 (Homo sapiens, UniProt P08183).
T2 construct: host or cells: MDCK-MDR1
The data set is described as follows: MDR1 efflux substrate assay (MDCK-MDR1). The class given is in vitro ADME. The note with it: MDCK-MDR1, 5µM, 60 min, in words. The method, then: as §1
MDR1 is protein of the tumor cell membrane that pumps the anticancer drugs out of cancer cells, thereby rendering the cell drug-resistant. The Papp (10^-6 cm/s) B (acceptor = basolateral) to A (donor = apical) reflects the susceptibility of a compounds to be pumped out of a tumor and as such a low Papp B→A value is advantageous in the context of oncology. The efflux ratio B/A reflects the overall ability of a compounds to enter MDR1-expressing tumor cells (equilibrium between ability to passively enter the cell A→B and susceptibility to be pumped out of a tumor B→A).

Another data set deals with T3, CycK (Homo sapiens, UniProt O75909).
T3 construct: endogenous in cells; host or cells: JIMT-1
The data set is described as follows: CycK protein quantification by Western Blot in JIMT-1 cells. The note with it: 2h. It counts as cell-based. The method, then: 1×10^6 JIMT-1 cells were plated in 3mL of DMEM/FBS 90:10 (v/v) in 6-well plates and incubated overnight. Cells were treated with the compound 2384 of the invention with or without the proteasome inhibitor MG-132 (MedChemExpress, Cat HY-13259) for 2h. Cells were harvested, and protein were extracted using complete RIPA buffer (RIPA buffer, 1 mM DTT, 1M NaF, 100 mM sodium orthovanadate, phosphatase inhibitor buffer and protease inhibitors) for 1 hour on ice. Lysate were centrifuged 15min at 12 000g at 4°C. and proteins were mixed with 4x Laemmli Sample Buffer (Bio-Rad), heated at 95 °C for 5 mins and separated by SDS PAGE (PROTEAN TGX Stain-Free Gels, Bio-Rad). Proteins were then transferred onto PVDF membrane (iBlot®2 PVDF stacks, Invitrogen) using the iBlot2 device (Invitrogen) and blocked with TBS buffer (Intercept® Blocking Buffer, LI-COR Biosciences). Primary antibodies were incubated overnight at 4°C and secondary antibodies (IRDye Infrared Dyes from LI-COR Biosciences) 1 hour at room temperature. Used primary antibody were: anti-CycK (cat#A301-939A, Bethyl Laboratories, dil. 1:1000) and anti-β-actin (cat#A5441, Sigma-Aldrich, dil. 1:5000). Membranes were scanned using a c500 Imaging System (Azure Biosystems) and densitometric quantification were performed using imaged software. Protein levels were normalized against β-actin.
On the technique in general: A western blot detects proteins with antibodies after separation by electrophoresis.

The nature of data set [1]: Passive permeability assessment (PAMPA assay). It counts as in vitro ADME. The following applies: in words. For orientation: In PAMPA a lipid-coated filter parts donor from acceptor wells.
Procedure: Stock solutions of compounds of the invention were prepared in dimethyl sulfoxide (DMSO) to a final concentration of 10 mM. Each stock solution was diluted to 50 µM in pH 7.4 Prisma HT buffer (pION) in the presence of 10% MeOH (v/v). 200 µL were added to each well of the donor plate in quintuplicate. […] The acceptor filter plate was carefully placed on top of the donor plate to form a "sandwich." The sandwich was incubated at 25°C for 5 h, at 300 rpm. UV-vis spectra of the solutions in the blank, reference, acceptor, and donor plates were measured using a Tecan Infinite 200 PRO M Nano Plus microplate reader. For each compound, apparent permeability values Papp (10^-6 cm/s) were calculated using the PAMPA Explorer software v.3.6 (pION).
The next data set deals with BT-474. Description: In vitro cytotoxicity assay (MTT). It counts as cell-based, human. The following applies: 6 days incubation. The source says: (§2) Human cancer cell lines used in the present project were purchased from either the American Type Culture Collection (ATCC), The Leibniz Institute DSMZ German Collection of Microorganisms and Cell Cultures GmbH (DSMZ) or the European Collection of Authenticated Cell Cultures (ECACC). For use in experiments, cells were cultivated following good and established cell culture practices, following instructions from the original ATCC/DSMZ/ECACC supplier for cell culture media & supplement, cryopreservation, and subculturing procedures. Cells were incubated under a 5% CO2 atmosphere at 37°C for no longer than 2 months.
(§3) In vitro cytotoxicity of compounds of the disclosure was assessed on several cancerous human cell lines. Cells were plated in 96-well plates at an appropriate density depending on the cell line (between 1000 and 10 000 cells/well in 100µL of appropriate culture media) and incubated at 37°C for 24 hours. Serial dilutions of the tested compound previously dissolved in culture media (50µL) were added, and incubation was carried at 37°C out for 6 days. MTT (5mg/mL in PBS, 20µL, Sigma-Aldrich) was added into the wells, and incubation was continued for 1 to 4 hours at 37°C. Culture media was then carefully removed, and well content was homogeneously dissolved with acidified isopropanol. Absorbance values were measured on a microplate reader using a wavelength of 570 nm (with a reference wavelength of 690 nm). The IC50 concentration values compared to untreated control cells were determined using inhibition dose response curve fitting (GraphPad Prism 9). Exatecan mesylate (cat#HY-13631A) and CR8 (CAS# 294646-77-8; cat#HY-18340) were purchased from MedChemExpress (China).

A further data set concerns MDA-MB-453. Description: In vitro cytotoxicity assay (MTT). The class given is cell-based, human. The note with it: 6 days incubation.
Text: as §2, §3

The next data set concerns SKBR-3. Description: In vitro cytotoxicity assay (MTT). The class given is cell-based, human. The following applies: 6 days incubation.
Text: as §2, §3

Another data set relates to NCI-N87. Description: In vitro cytotoxicity assay (MTT). The class given is cell-based, human. The following applies: 6 days incubation.
Text: as §2, §3

The next data set has as its system MDA-MB-231. Description: In vitro cytotoxicity assay (MTT). The note with it: 6 days incubation. The class given is cell-based, human.
Text: as §2, §3

The nature of data set [2]: In vivo mice tolerability assessment. The following applies: female CD-1 mice, single intravenous 1mg/kg dose, Mean. Here is the method:
All animal procedures were performed in accordance with the European Union directive 86/609/EEC. Experiments were performed under individual permit and in accredited animal care facilities.
Mouse tolerability experiments were performed with selected compounds of the disclosure. Female CD-1 mice (n=5 mice per group) were treated with a single intravenous 1mg/kg dose of compound. Vehicle was PBS pH 6.0. Mice were carefully monitored for mortality, external clinical findings, weight loss, behavior and apparent signs of toxicity over the course of 21 days.

The test system of a further data set is JIMT-1. Description: In vitro cytotoxicity assay (MTT). It counts as cell-based, human. The following applies: 6 days incubation.
Text: as §2, §3

T2 sequence (P08183 whole entry): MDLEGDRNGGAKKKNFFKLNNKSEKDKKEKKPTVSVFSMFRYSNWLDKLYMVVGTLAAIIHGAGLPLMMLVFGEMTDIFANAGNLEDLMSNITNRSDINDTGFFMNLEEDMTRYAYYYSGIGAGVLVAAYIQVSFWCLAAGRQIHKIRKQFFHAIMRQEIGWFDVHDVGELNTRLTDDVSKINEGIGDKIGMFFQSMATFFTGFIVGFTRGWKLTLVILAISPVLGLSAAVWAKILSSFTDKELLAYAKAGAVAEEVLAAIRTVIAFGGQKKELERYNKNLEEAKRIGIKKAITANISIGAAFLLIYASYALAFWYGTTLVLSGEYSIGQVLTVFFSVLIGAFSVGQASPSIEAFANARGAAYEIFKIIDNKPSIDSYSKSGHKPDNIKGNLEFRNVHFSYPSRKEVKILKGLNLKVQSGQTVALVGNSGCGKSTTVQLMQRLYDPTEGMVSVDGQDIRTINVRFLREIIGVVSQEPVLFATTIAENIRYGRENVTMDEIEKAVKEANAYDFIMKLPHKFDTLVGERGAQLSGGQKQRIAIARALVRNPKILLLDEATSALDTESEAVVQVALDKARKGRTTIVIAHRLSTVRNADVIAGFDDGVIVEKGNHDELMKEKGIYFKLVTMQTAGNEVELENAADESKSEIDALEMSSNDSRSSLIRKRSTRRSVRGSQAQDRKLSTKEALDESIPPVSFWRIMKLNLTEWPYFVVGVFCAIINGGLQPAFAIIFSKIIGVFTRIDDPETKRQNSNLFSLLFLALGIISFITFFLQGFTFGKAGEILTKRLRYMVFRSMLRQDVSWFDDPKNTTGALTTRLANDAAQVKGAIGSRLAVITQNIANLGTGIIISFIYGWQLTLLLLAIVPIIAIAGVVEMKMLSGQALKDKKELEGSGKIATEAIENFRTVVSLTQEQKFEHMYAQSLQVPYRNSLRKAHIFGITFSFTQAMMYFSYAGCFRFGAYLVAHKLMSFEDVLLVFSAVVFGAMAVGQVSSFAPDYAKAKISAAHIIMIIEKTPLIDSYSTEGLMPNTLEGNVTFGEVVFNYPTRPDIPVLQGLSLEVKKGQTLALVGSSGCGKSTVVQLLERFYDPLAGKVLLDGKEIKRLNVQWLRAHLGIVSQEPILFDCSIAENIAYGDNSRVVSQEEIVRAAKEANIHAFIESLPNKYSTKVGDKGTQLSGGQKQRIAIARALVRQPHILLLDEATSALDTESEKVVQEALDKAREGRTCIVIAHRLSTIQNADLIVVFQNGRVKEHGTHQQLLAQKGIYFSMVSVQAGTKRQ
T3 sequence (O75909 whole entry): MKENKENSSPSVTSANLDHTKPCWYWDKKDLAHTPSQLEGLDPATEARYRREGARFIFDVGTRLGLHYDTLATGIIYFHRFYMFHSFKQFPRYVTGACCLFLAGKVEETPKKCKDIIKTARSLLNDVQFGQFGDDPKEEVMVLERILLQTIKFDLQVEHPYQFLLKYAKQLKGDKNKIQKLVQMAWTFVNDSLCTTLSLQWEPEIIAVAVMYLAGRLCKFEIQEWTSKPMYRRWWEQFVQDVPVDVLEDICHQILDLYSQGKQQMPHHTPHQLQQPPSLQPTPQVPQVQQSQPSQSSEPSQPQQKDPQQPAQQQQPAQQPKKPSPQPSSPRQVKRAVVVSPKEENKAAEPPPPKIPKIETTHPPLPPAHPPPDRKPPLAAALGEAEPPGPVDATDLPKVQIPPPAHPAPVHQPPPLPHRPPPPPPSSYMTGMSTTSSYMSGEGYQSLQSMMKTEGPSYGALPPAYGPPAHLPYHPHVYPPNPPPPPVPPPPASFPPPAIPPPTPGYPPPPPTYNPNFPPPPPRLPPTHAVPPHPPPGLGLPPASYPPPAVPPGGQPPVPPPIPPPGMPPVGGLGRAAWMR
T3 sequence (Q9NYV4 whole entry partner): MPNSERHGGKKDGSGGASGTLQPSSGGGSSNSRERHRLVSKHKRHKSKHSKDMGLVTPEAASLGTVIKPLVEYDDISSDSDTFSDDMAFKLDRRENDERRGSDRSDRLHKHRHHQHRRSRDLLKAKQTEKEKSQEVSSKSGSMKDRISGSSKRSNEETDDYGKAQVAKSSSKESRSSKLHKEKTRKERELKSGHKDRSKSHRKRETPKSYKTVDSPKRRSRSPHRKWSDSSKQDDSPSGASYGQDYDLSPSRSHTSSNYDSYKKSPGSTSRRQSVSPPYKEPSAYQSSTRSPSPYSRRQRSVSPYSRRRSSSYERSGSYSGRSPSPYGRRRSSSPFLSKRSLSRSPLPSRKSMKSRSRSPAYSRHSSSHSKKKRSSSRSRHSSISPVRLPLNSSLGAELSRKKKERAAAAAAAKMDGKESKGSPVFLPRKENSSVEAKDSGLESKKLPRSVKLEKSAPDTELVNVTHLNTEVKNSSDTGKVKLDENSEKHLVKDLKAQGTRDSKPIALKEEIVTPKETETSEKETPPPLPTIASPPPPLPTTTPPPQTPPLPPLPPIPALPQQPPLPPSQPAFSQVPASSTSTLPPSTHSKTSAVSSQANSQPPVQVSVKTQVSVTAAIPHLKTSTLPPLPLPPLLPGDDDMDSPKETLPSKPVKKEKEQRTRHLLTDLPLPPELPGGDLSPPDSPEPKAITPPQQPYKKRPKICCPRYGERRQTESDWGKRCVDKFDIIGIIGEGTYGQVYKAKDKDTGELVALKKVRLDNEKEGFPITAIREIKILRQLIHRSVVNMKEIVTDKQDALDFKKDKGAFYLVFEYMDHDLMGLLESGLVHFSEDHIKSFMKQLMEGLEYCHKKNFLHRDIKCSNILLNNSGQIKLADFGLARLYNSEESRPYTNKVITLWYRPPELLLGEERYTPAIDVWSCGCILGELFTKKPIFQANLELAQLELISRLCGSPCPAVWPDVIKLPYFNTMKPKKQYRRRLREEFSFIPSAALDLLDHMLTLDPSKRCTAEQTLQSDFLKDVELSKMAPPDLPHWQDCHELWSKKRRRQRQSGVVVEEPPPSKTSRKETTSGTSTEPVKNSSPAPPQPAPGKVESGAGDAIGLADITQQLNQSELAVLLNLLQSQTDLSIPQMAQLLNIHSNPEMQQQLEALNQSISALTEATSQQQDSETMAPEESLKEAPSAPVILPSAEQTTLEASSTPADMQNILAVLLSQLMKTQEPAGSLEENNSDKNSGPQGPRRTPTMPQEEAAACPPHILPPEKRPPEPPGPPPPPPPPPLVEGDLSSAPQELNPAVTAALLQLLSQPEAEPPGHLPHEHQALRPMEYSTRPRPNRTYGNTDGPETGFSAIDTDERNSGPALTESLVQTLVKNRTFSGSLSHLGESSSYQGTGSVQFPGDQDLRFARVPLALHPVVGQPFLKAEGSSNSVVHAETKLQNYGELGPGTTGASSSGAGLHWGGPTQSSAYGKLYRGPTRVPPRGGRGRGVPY
T3 sequence (Q16531 whole entry partner): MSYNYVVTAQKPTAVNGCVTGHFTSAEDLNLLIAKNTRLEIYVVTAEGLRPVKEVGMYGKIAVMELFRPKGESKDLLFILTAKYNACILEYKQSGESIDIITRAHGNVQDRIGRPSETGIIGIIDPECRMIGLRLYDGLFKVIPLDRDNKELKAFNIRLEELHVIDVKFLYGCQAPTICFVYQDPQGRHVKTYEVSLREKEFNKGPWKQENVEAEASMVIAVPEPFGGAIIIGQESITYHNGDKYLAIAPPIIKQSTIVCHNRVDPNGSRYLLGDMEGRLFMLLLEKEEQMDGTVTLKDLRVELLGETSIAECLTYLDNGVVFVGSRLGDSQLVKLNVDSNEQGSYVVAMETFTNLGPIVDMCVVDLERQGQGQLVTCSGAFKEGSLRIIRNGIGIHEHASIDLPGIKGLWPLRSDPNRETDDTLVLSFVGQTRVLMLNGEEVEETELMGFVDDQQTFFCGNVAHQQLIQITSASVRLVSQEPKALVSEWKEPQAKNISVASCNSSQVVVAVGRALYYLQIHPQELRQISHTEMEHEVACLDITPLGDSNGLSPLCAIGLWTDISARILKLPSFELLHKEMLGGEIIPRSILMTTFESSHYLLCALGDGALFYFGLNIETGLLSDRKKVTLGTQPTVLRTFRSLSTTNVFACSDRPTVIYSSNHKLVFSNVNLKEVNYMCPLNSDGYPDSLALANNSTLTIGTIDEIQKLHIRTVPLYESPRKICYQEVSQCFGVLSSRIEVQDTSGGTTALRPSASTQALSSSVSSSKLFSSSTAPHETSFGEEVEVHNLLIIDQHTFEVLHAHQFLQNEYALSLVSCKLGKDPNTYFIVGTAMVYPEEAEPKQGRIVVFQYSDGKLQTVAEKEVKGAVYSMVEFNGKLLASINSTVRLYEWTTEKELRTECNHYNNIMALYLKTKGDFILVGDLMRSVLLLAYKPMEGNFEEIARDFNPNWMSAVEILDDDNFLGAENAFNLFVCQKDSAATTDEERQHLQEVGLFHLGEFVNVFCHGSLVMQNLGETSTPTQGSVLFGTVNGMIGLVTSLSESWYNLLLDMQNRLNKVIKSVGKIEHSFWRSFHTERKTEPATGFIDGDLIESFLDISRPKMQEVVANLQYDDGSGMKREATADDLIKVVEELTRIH

For the compound `CNCCN(C)c1nc(NCc2ccc(-c3ccccn3)cc2)n2ncc(Br)c2n1` [Compound 2605], the BCRP efflux potential entry on BCRP is listed as “low level”. In addition, on MDR1, the MDR1 efflux potential result was “low level”.
As to `CN(C)C/C=C/C(=O)Nc1ccc(C(=O)N2CCC[C@@H](Nc3ncc(Cl)c(-c4c[nH]c5ccccc45)n3)C2)cc1` [THZ-531, reference compound], the CycK protein content entry on CycK (1µM final concentration) was “no impact”.
For `NCCCCNc1nc(NCc2ccc(-c3ccccn3)cc2)n2ncc(Br)c2n1` [Compound 2585], in data set [1], the passive permeability potential result is “none”.
The same measure, in the same setting: in the case of `NC[C@H]1CC[C@H](Nc2nc(NCc3ccc(-c4ccccn4)cc3)n3ncc(Br)c3n2)CC1` [Compound 2636] it was “moderate”.
As for `Brc1cnn2c(NCc3ccc(-c4ccccn4)cc3)nc(N[C@H]3CCNC3)nc12` [Compound 2657], the IC50 is 1.71 nM in the data set with BT-474; 0.77 nM in the data set with MDA-MB-453; 0.13 nM in the data set with SKBR-3; 0.43 nM with NCI-N87; 0.56 nM with MDA-MB-231. In addition, the “average weight change (% initial weight)” value in data set [2] (Study Day 1) is recorded as 0.0 % initial weight; in data set [2] (Study Day 2), 1.3 % initial weight; in data set [2] (Study Day 3), 1.5 % initial weight; in data set [2] (Study Day 4), 1.7 % initial weight; in data set [2] (Study Day 5) it was 2.3 % initial weight; in data set [2] (Study Day 6), 4.2 % initial weight. The “average weight change (% initial weight)” value in [2] (Study Day 7) was determined as 3.3 % initial weight; in data set [2] (Study Day 8), 4.2 % initial weight; in data set [2] (Study Day 9), 4.5 % initial weight; in [2] (Study Day 10), 7.8 % initial weight; in data set [2] (Study Day 11), 7.7 % initial weight; in data set [2] (Study Day 12), 8.0 % initial weight. The “average weight change (% initial weight)” value in data set [2] (Study Day 13) stood at 7.9 % initial weight; in [2] (Study Day 14) it was 8.0 % initial weight; in [2] (Study Day 15), 7.9 % initial weight; in [2] (Study Day 16), 9.4 % initial weight; in data set [2] (Study Day 17) it was 9.3 % initial weight; in data set [2] (Study Day 18), 9.8 % initial weight. Moreover, the “average weight change (% initial weight)” value in data set [2] (Study Day 19) came to 10.5 % initial weight; in [2] (Study Day 20), 11.4 % initial weight; in data set [2] (Study Day 21) it was 12.0 % initial weight.
With `CC(C)C[C@@H](C=O)NC(=O)[C@H](CC(C)C)NC(=O)[C@H](CC(C)C)NC(=O)OCc1ccccc1` [MG-132, reference compound] (Cbz-Leu-Leu-Leu-aldehyde), the “CycK protein content in combination with proteasome inhibitor” value at CycK (degrader combined with MG-132) was “restored the content in cycK protein”.
Regarding `N[C@H]1CCN(c2nc(NCc3ccc(-c4ccccn4)cc3)n3ncc(Br)c3n2)C1` [Compound 2655], the BCRP efflux potential entry on BCRP is listed as “low level”. For the same compound, at MDR1, the MDR1 efflux potential result was “low level”.
Turning to `Brc1cnn2c(Nc3ccc(CN4CCOCC4)cc3)nc(NC3CCNCC3)nc12` [Compound 2554], the IC50 with JIMT-1, with BT-474, in the data set with MDA-MB-453, with SKBR-3, with NCI-N87 and in the data set on MDA-MB-231 was above 100 nM in each case.
For the compound `N[C@H]1CCCC[C@@H]1Nc1nc(NCc2ccc(-c3ccccn3)cc2)n2ncc(Br)c2n1` [Compound 2671], the passive permeability potential result in [1] is recorded as “high”.
With `CN(CCN)c1nc(NCc2ccc(-c3ccccn3)cc2)n2ncc(Br)c2n1` [Compound 2600], the BCRP efflux potential entry on BCRP is listed as “low level”. Besides, the MDR1 efflux potential result at MDR1 is listed as “low level”.

The term IC50 denotes the concentration that gives 50% inhibition.
